Assay [1] addresses T1, human TREX2 (residues M44-A279) (Homo sapiens, UniProt Q9BQ50).
T1 construct: human TREX2 (residues M44-A279, expressed in E. coli); made in house; host or cells: E. coli
T1 sequence (Q9BQ50 44-279 isoform Q9BQ50-1): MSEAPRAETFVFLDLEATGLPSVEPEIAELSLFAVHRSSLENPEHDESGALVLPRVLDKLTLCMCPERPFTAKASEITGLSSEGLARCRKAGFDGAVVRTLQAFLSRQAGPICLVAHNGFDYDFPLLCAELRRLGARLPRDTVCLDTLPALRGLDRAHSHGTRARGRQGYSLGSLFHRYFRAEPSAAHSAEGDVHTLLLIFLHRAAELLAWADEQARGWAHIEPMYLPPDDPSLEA
In words: hTREX2 Biochemical Assay (fluorescence, dsDNA substrate degradation). Particulars: biochemical selectivity for hTREX1 vs hTREX2. Summed up:
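N-His-Tev E. coli enzyme (50 pM) pre-incubated with compound 4 h at 25 °C, then 60 nM TEX615/quencher dsDNA added; 18 h at 25 °C, pH 7.4 Tris buffer with 5 mM MgCl2, 1.0% DMSO. EDTA-quenched; fluorescence 570 ex/615 em from liberated fluorophore, 10-point dose-response.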

In a further assay the target is T2, hTREX1 (Homo sapiens, UniProt Q9NSU2).
T2 construct: host or cells: HCT116 dual cells
T2 sequence (Q9NSU2 1-314): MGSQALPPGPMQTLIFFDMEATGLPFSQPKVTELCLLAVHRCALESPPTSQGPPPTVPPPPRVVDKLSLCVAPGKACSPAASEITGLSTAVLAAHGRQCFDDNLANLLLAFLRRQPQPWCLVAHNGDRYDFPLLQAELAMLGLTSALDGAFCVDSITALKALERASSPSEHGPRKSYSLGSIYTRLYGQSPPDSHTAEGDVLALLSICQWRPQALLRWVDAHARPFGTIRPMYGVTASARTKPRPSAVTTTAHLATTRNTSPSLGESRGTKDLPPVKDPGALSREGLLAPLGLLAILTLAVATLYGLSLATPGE
Description: hTREX1 HCT116 Cell Assay (HCT116 dual cells, Lucia luciferase reporter of Type I interferon induction). Particulars: TREX1i 4 h before pBR322/BstNI transfection, read after 48 h. The assay is classed as cell-based. Summed up: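 HCT116 dual cells carrying an ISRE-type STAT1/STAT2-driven secreted Lucia luciferase reporter were pretreated with TREX1 inhibitor for 4 h (≤0.1% DMSO), then transfected with pBR322/BstNI DNA (100 ng/well, Lipofectamine LTX). Luciferase in medium read after 48 h at 37 °C.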

The next assay addresses T3, full length human TREX1 (Homo sapiens, UniProt Q9NSU2).
T3 construct: N-terminally His-Tev tagged full length human TREX1; made in house; host or cells: E. coli
T3 sequence (Q9NSU2 1-314): T2 sequence (Q9NSU2 1-314)
In words: hTREX1 Biochemical Assay (fluorescence, dsDNA substrate degradation). Particulars: biochemical, read-out: hTREX1 IC50. Summed up: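 Cleavage of 60 nM TEX615/quencher-labelled dsDNA in pH 7.4 Tris buffer with 5 mM MgCl2, 1.0% DMSO, run 18 hours at 25° C, EDTA-quenched; fluorescence read-out.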

A further assay has as its target T4, full length mouse TREX1 (Mus musculus, UniProt Q91XB0).
T4 construct: N-terminally His-Tev tagged full length mouse TREX1; made in house; host or cells: E. coli
T4 sequence (Q91XB0 1-314): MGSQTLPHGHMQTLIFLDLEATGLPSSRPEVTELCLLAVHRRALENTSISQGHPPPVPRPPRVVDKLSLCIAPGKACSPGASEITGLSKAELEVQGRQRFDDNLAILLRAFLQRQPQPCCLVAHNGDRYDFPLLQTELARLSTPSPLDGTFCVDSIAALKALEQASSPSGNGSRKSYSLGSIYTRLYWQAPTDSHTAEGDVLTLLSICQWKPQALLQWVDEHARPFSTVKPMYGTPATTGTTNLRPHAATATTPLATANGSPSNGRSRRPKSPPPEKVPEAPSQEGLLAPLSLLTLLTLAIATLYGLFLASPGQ
In words: mTREX1 Biochemical Assay (fluorescence, dsDNA substrate degradation). Particulars: biochemical, read-out: mTREX1 IC50. Summed up:
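Reaction run 18 h at 25° C. with 60 nM TEX615/quencher-labelled dsDNA and 6 pM mouse TREX1 in Tris buffer (pH 7.4, 5 mM MgCl2, 1.0% DMSO), enzyme having sat 4 h with compound across 10 concentrations. EDTA quench; substrate degradation measured as fluorescence increase.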

Each structure is given as a SMILES string. Where only a bound is given, the exact number is not on record here.

In general, IC50 refers to the concentration that inhibits the measured activity by half.

On to `Cc1cnc(C)c(C(c2cc(F)ccc2Cl)C(C)c2nc(C(=O)Nc3cnoc3)c(O)c(=O)n2C)n1` (single isomer, unassigned) [Example 121 D1E1], for which the “hTREX1 vs hTREX2 selectivity” value in assay [1] is “C (C = >50 fold selective for hTREX1)”. For the same compound, the IC50 at hTREX1 is below 10 nM; at full length human TREX1, below 1 nM; at full length mouse TREX1 it was 1 to 10 nM.

On to `CC(c1nc(C(=O)Nc2cnoc2)c(O)c(=O)n1C)C(c1ccccc1Cl)c1cnn(C)c1C#N` (single isomer, unassigned) [Example 96 D2E2], for which the “hTREX1 vs hTREX2 selectivity” value in assay [1] is “C (C = >50 fold selective for hTREX1)”. Further, the figures for the half-maximal inhibitory concentration (IC50) at hTREX1, on full length human TREX1 and on full length mouse TREX1 were below 10 nM, below 1 nM and 1 to 10 nM, respectively.

As for `Cc1nn(C)cc1C(c1cc(F)ccc1C#N)C(C)c1nc(C(=O)Nc2cnoc2)c(O)c(=O)n1C` (single isomer, unassigned) [Example 57 D1E1], in assay [1], the “hTREX1 vs hTREX2 selectivity” value is “C (C = >50 fold selective for hTREX1)”. Also, the IC50 at hTREX1 was 10 to 100 nM; on full length human TREX1, 1 to 10 nM; on full length mouse TREX1, above 10 nM.

Consider `Cc1ccnn1C(c1cc(F)ccc1Cl)C(C)c1nc(C(=O)Nc2cnoc2)c(O)c(=O)n1C` (single isomer, unassigned) [Example 145 D1E1], for which the “hTREX1 vs hTREX2 selectivity” value in assay [1] is on record as “B (B = 25 to 50-fold selective for hTREX1)”. Also, the half-maximal inhibitory concentration (IC50) against hTREX1 is 10 to 100 nM; on full length human TREX1, 1 to 10 nM; at full length mouse TREX1 it was above 10 nM.

As to `CC(c1nc(C(=O)Nc2cnoc2)c(O)c(=O)n1C)C(c1ccccc1Cl)n1cc(C(F)(F)F)cn1` (single isomer, unassigned) [Example 139 D1E1], the “hTREX1 vs hTREX2 selectivity” value in assay [1] is “A (A = <25 fold selective for hTREX1)”. Further, the IC50 at hTREX1 is above 100 nM; at full length human TREX1, 1 to 10 nM; on full length mouse TREX1, 1 to 10 nM.

Regarding `COCCn1ncc(C(c2cc(F)ccc2Cl)C(C)c2nc(C(=O)Nc3cnoc3)c(O)c(=O)n2C)c1C` (single isomer, unassigned) [Example 108 D1E1], in assay [1], the “hTREX1 vs hTREX2 selectivity” value is “A (A = <25 fold selective for hTREX1)”. In addition, the IC50 against hTREX1 was above 100 nM; at full length human TREX1, 1 to 10 nM; at full length mouse TREX1, above 10 nM.

`Cc1ccn(C(c2cc(F)ccc2Cl)C(C)c2nc(C(=O)Nc3cnoc3)c(O)c(=O)n2C)n1` (single isomer, unassigned) [Example 146 D1E1]: the “hTREX1 vs hTREX2 selectivity” value in assay [1] is “C (C = >50 fold selective for hTREX1)”. For the same compound, the IC50 was above 100 nM against hTREX1, 1 to 10 nM at full length human TREX1 and above 10 nM on full length mouse TREX1.

For `CC(c1nc(C(=O)Nc2cnoc2)c(O)c(=O)n1C)C(c1cnn(CCN2CCOCC2)c1)c1ccccc1C#N` (single isomer, unassigned) [Example 20 D1E1], the “hTREX1 vs hTREX2 selectivity” value in assay [1] was “C (C = >50 fold selective for hTREX1)”. Besides, the IC50 on hTREX1 was 10 to 100 nM; at full length human TREX1, below 1 nM; at full length mouse TREX1, 1 to 10 nM.

As for `CC(c1nc(C(=O)Nc2cnoc2)c(O)c(=O)n1C)C(c1cnn(C)c1)c1ccc(C(=O)N(C)C)cc1C#N` (single isomer, unassigned) [Example 11 D1E1], in assay [1], the “hTREX1 vs hTREX2 selectivity” value is recorded as “B (B = 25 to 50-fold selective for hTREX1)”. Further, the half-maximal inhibitory concentration (IC50) on hTREX1 is above 100 nM; on full length human TREX1, below 1 nM; on full length mouse TREX1 it was below 1 nM.

With `Cc1cnc(C)c(C(c2cc(F)ccc2C#N)C(C)c2nc(C(=O)Nc3cnoc3)c(O)c(=O)n2C)n1` (single isomer, unassigned) [Example 119 D2E1], in assay [1], the “hTREX1 vs hTREX2 selectivity” value is given as “C (C = >50 fold selective for hTREX1)”. In addition, the IC50 on hTREX1 was above 100 nM; on full length human TREX1, 1 to 10 nM; at full length mouse TREX1 it was above 10 nM.

On to `COCCn1cc(C(c2cc(F)ccc2C#N)C(C)c2nc(C(=O)Nc3cnoc3)c(O)c(=O)n2C)c(C)n1` (single isomer, unassigned) [Example 103 D1E2], for which the “hTREX1 vs hTREX2 selectivity” value in assay [1] is recorded as “C (C = >50 fold selective for hTREX1)”. Further, the IC50 is 10 to 100 nM against hTREX1, below 1 nM on full length human TREX1 and below 1 nM at full length mouse TREX1.

As for `Cc1cnc(C(c2ccccc2Cl)C(C)c2nc(C(=O)Nc3cnoc3)c(O)c(=O)n2C)cn1` (single isomer, unassigned) [Example 116 D2E1], the “hTREX1 vs hTREX2 selectivity” value in assay [1] is listed as “A (A = <25 fold selective for hTREX1)”. The IC50 against hTREX1 was above 100 nM; on full length human TREX1, 1 to 10 nM; on full length mouse TREX1, above 10 nM.

As to `Cc1cnc(C)c(C(c2cc(F)ccc2C#N)C(C)c2nc(C(=O)Nc3cnoc3)c(O)c(=O)n2C)n1` (single isomer, unassigned) [Example 119 D2E2], the “hTREX1 vs hTREX2 selectivity” value in assay [1] is on record as “A (A = <25 fold selective for hTREX1)”. For the same compound, the IC50 at hTREX1 was above 100 nM; on full length human TREX1 it was above 10 nM; at full length mouse TREX1, above 10 nM.

Turning to `Cc1nn(C)cc1C(c1ccccc1C#N)C(c1nc(C(=O)Nc2cnoc2)c(O)c(=O)n1C)C(F)(F)F` (single isomer, unassigned) [Example 41 D1E2], in assay [1], the “hTREX1 vs hTREX2 selectivity” value was “C (C = >50 fold selective for hTREX1)”. Moreover, the IC50 against hTREX1 was below 10 nM; at full length human TREX1, below 1 nM; on full length mouse TREX1, 1 to 10 nM.

`Cc1nc(C)c(C(c2ccccc2C#N)C(C)c2nc(C(=O)Nc3cnoc3)c(O)c(=O)n2C)nc1C` (single isomer, unassigned) [Example 122 D2E1]: the “hTREX1 vs hTREX2 selectivity” value in assay [1] is recorded as “B (B = 25 to 50-fold selective for hTREX1)”. The IC50 is above 100 nM on hTREX1, 1 to 10 nM at full length human TREX1 and above 10 nM on full length mouse TREX1.

Take `CC(C)c1cnn(C(c2ccccc2Cl)C(C)c2nc(C(=O)Nc3cnoc3)c(O)c(=O)n2C)c1` (single isomer, unassigned) [Example 135 D1E1]: the “hTREX1 vs hTREX2 selectivity” value in assay [1] was “B (B = 25 to 50-fold selective for hTREX1)”. Besides, the IC50 on hTREX1 was above 100 nM; at full length human TREX1, 1 to 10 nM; on full length mouse TREX1 it was 1 to 10 nM.

Consider `CC(c1nc(C(=O)Nc2cnoc2)c(O)c(=O)n1C)C(c1cnn(CC(C)(C)O)c1)c1cc(F)ccc1Cl` (single isomer, unassigned) [Example 92 D1E1], for which the “hTREX1 vs hTREX2 selectivity” value in assay [1] is reported as “A (A = <25 fold selective for hTREX1)”. For the same compound, the figures for the IC50 at hTREX1, on full length human TREX1 and on full length mouse TREX1 were above 100 nM, 1 to 10 nM and 1 to 10 nM, respectively.

With `Cc1n[nH]c(C)c1C(c1ccccc1C#N)C(C)c1nc(C(=O)Nc2cnoc2)c(O)c(=O)n1C` (single isomer, unassigned) [Example 95 D1E1], in assay [1], the “hTREX1 vs hTREX2 selectivity” value was “C (C = >50 fold selective for hTREX1)”. For the same compound, the IC50 at hTREX1 was below 10 nM; at full length human TREX1 it was below 1 nM; on full length mouse TREX1, 1 to 10 nM.

As for `Cc1nccc(C(c2ccccc2C#N)C(C)c2nc(C(=O)Nc3cnoc3)c(O)c(=O)n2C)n1` (single isomer, unassigned) [Example 83 D2E1], the “hTREX1 vs hTREX2 selectivity” value in assay [1] is recorded as “B (B = 25 to 50-fold selective for hTREX1)”. Moreover, the figures for the IC50 against hTREX1, at full length human TREX1 and on full length mouse TREX1 were above 100 nM, 1 to 10 nM and above 10 nM, respectively.

Consider `Cc1cnc(C(c2cc(F)ccc2Cl)C(C)c2nc(C(=O)Nc3cnoc3)c(O)c(=O)n2C)cn1` (single isomer, unassigned) [Example 117 D2E1], for which the “hTREX1 vs hTREX2 selectivity” value in assay [1] is listed as “A (A = <25 fold selective for hTREX1)”. Further, the IC50 was above 100 nM against hTREX1, 1 to 10 nM on full length human TREX1 and above 10 nM at full length mouse TREX1.
